The record followed here is patent US20220062278A1, “SMALL MOLECULE INHIBITORS OF THE ANDROGEN RECEPTOR ACTIVITY AND/OR EXPRESSION AND USES THEREOF” (Arizona Board of Regents on Behalf of the Univeristy of …, priority 2018, published 2022).

This test addresses T1, AR (Homo sapiens, UniProt P10275).
T1 sequence (P10275 669-920 limits assumed): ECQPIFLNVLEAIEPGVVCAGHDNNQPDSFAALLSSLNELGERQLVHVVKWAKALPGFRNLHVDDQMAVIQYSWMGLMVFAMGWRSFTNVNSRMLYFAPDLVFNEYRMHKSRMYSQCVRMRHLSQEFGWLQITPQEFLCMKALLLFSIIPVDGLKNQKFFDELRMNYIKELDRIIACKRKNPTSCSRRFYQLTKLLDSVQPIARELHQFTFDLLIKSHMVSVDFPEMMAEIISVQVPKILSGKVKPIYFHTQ
As to the kind of experiment: GeneBlazer assay, inhibition against AR activity. The format is cell-based. Particulars: Table II. From the text:
Tables II, III and IV show % inhibition against AR activity at 10 μm within a GeneBlazer assay, and IC50 values (nM) in GeneBlazer assay.

For `CCCCn1nnnc1C(c1cccc(O)c1)N1CCN(c2ccc(F)cc2)CC1` (stereo not drawn) [Compound 54, 3-((1-butyl-1H-tetrazol-5-yl)(4-(4-fluorophenyl)piperazin-1-yl)methyl)phenol], the inhibition at 10 µM turned out to be 51.3%.
Same read-out and setting: the figure for `CCCCn1nnnc1C(c1ccc(OC)cc1)N1CCN(c2c(Cl)cncc2Cl)CC1` (stereo not drawn) [Compound 32, 1-((1-butyl-1H-tetrazol-5-yl)(4-methoxyphenyl)methyl)-4-(3,5-dichloropyridin-4-yl)piperazine] is 91.6%.
Take `CC(C)(C)n1nnnc1C(c1cc2ccccc2[nH]1)N1CCN(c2c(Cl)cncc2Cl)CC1` (stereo not drawn) [Compound 47, 2-((1-(tert-butyl)-1H-tetrazol-5-yl)(4-(3,5-dichloropyridin-4-yl)piperazin-1-yl)methyl)-1H-indole]: the inhibition at 10 µM came out at 114% and the half-maximal inhibitory concentration (IC50) was determined as 182 nM.
In the same order, the values of `CCCCn1nnnc1C(c1cccc(O)c1)N1CCN(c2c(Cl)cncc2Cl)CC1` (stereo not drawn) [Compound 1, 3-((1-butyl-1H-tetrazol-5-yl)(4-(3,5-dichloropyridin-4-yl)piperazin-1-yl)methyl)phenol] are 81.5% and 45.9 nM.
Turning to `CCCCn1nnnc1C(c1cc2ccccc2[nH]1)N1CCN(c2c(Cl)cncc2Cl)CC1` (stereo not drawn) [Compound 46, 2-((1-butyl-1H-tetrazol-5-yl)(4-(3,5-dichloropyridin-4-yl)piperazin-1-yl)methyl)-1H-indole], the inhibition at 10 µM was 102% and half-maximal inhibition (IC50) required 381 nM.
As for `CCCCn1nnnc1C(c1cccc(OC)c1)N1CCN(c2c(Cl)cncc2Cl)CC1` (stereo not drawn) [Compound 7, 1-((1-butyl-1H-tetrazol-5-yl)(3-methoxyphenyl)methyl)-4-(3,5-dichloropyridin-4-yl)piperazine], the inhibition at 10 µM was 108%.
Take `CCCCn1nnnc1C(c1cccc(O)c1)N1CCN(c2c(Cl)cccc2Cl)CC1` (stereo not drawn) [Compound 25, 3-((1-butyl-1H-tetrazol-5-yl)(4-(2,6-dichlorophenyl)piperazin-1-yl)methyl)phenol]: the inhibition at 10 µM worked out at 98% and the half-maximal inhibitory concentration (IC50) came to 1600 nM.
For the compound `CCCCn1nnnc1C(c1cccc(O)c1)N1CCN(c2cccc(C)c2C)CC1` (stereo not drawn) [Compound 66, 3-((1-butyl-1H-tetrazol-5-yl)(4-(2,3-dimethylphenyl)piperazin-1-yl)methyl)phenol], the inhibition at 10 µM is 106%.
Same read-out and setting: the figure for `CCCCn1nnnc1C(c1ccc2[nH]ccc2c1)N1CCN(c2c(Cl)cncc2Cl)CC1` (stereo not drawn) [Compound 12, 5-((1-butyl-1H-tetrazol-5-yl)(4-(3,5-dichloropyridin-4-yl)piperazin-1-yl)methyl)-1H-indole] is 93.9%; for `CCCCn1nnnc1C(c1ccc(C#N)cc1)N1CCN(c2c(Cl)cncc2Cl)CC1` (stereo not drawn) [Compound 34, 4-((1-butyl-1H-tetrazol-5-yl)(4-(3,5-dichloropyridin-4-yl)piperazin-1-yl)methyl)benzonitrile] it is 99.8%.
Same read-out and setting: the figure for `CCCCn1nnnc1C(c1cccc2ccccc12)N1CCN(c2c(Cl)cncc2Cl)CC1` (stereo not drawn) [Compound 38, 1-((1-butyl-1H-tetrazol-5-yl)(naphthalen-1-yl)methyl)-4-(3,5-dichloropyridin-4-yl)piperazine] is 97.6%; for `CCCCn1nnnc1C(c1cccc(O)c1)N1CCN(c2ccc(C(C)=O)cc2)CC1` (stereo not drawn) [Compound 63, 1-(4-(4-((1-butyl-1H-tetrazol-5-yl)(3-hydroxyphenyl)methyl)piperazin-1-yl)phenyl)ethanone] it is 47.9%.
Consider `CC(C)(C)n1nnnc1C(c1cccc(O)c1)N1CCN(c2c(Cl)cncc2Cl)CC1` (stereo not drawn) [Compound 16, 3-((1-(tert-butyl)-1H-tetrazol-5-yl)(4-(3,5-dichloropyridin-4-yl)piperazin-1-yl)methyl)phenol], for which the inhibition at 10 µM is 102%.
On the same count and under the same terms, in the case of `CCCCn1nnnc1C(c1ccc2c(c1)OCO2)N1CCN(c2c(Cl)cncc2Cl)CC1` (stereo not drawn) [Compound 11, 1-(benzo[d][1,3]dioxol-5-yl(1-butyl-1H-tetrazol-5-yl)methyl)-4-(3,5-dichloropyridin-4-yl)piperazine] it was 98.4%.

Broadly, the inhibition is the change of the read-out against control, counted positive when it falls. Usually IC50 stands for the concentration needed to halve the response being measured. A low value points to greater potency in that assay.
